According to patent publication US8232273B2, “Heterocyclic compounds and methods of use” (Genentech, Inc., priority 2008, dated 2012):

Key:
Bcl-xL (GST-Bcl-xL) = Bcl-xL (GST-Bcl-xL) (Homo sapiens, UniProt Q07817); assay: TR-FRET binding assay, competition with F-Bak for the Bcl-xL binding site; details: values listed in the order of Table 1, read-out: TR-FRET assay results (Ki), Bcl-xL
Bcl-2 (GST-Bcl-2) = target: T1, Bcl-2 (GST-Bcl-2) (Homo sapiens, UniProt P10415); assay: TR-FRET binding assay, competition with F-Bak for the Bcl-2 binding site; details: Bcl-2, for comparison (selectivity)
T1 construct: made in house
Method: For each assay plate, a probe/antibody and protein/antibody/probe mixture were included as a negative and a positive control, respectively. Fluorescence was measured on the Envision (Perkin Elmer) using a 340/35 nm excitation filter and 520/525 (F-Bak) and 495/510 nm (Tb-labeled anti-his antibody) emission filters. Dissociation constants (Ki) were determined using Wang's equation (see, Wang, Z. X. An exact mathematical expression for describing competitive binding of two different ligands to a protein molecule. FEBS Lett. 1995 360:111-114). The TR-FRET assay can be performed in the presence of varying concentrations of human serum (HS) or fetal bovine serum (FBS). For comparison, the measurement of the competition of compounds of the invention for other Bcl-2 family protein binding sites (e.g., Bcl-2, Mcl-1) using the TR-FRET binding assay was accomplish by substituting GST-Bcl-xL in the TR-FRET assay with other GST-labeled protein, e.g., GST-Bcl-2, GST-Mcl-1, prepared in-house.

[1] = tested on: Mcl-1-/- mouse embryonic fibroblasts (MEF); assay: Cell viability assay for Mcl-1-/- mouse embryonic fibroblasts (CellTiter-Glo); type: cell-based; details: Fibroblast, in the presence of 10% Fetal Bovine Serum, read-out: MEF Mcl-1-/- KO cell viability results (EC50)
Description: a. Cell Viability Assay for Mcl-1^−/− Mouse Embryonic Fibroblasts (MEF): […]
In this assay, Mcl-1^(−/−) cells were used to confirm that cell apoptosis in the presence of BH3 mimetic small molecules was due to predominantly Bcl-xL inactivation. This inactivation leaves Bax/Bak unconstrained and results in apoptosis. The […]-GLO Luminescent Cell Viability Assay is a homogeneous method of determining the number of viable cells in culture based on quantitation of the ATP present. The amount of ATP correlates with the presence of metabolically active cells such that following cell lysis the amount of ATP present is proportional to the amount of luminescence measured.
Mcl-1^(−/−) mouse embryonic fibroblasts (MEFs) are an adherent cell line prepared in house. MEFs were grown in Iwaki 75 cm^2 tissue culture flasks (cat #3123-075) with FMA media which consists of • 89% DME Kelso • 10% heat-inactivated foetal calf serum (FCS) (Hyclone cat #SH30396.03) • 1% 10 mM asparagine (Fluka cat #11149) • 275 μl of a 1:2000 dilution of 2-mercaptoethanol is added to the final 500 ml volume of FMA (Sigma cat #M7522; diluted in MT-PBS)
FMA was stored at 4° C. and used at 37° C. MEFs were cultured in FMA media and harvested in MT-PBS and trypsin. For MEF cell viability assays, cells were seeded separately in plates with 10% FCS-FMA and 1% FCS-FMA.
Assays were performed using white, flat clear-bottom Greiner 384-well tissue culture grade (Interpath #781098) plates. The compounds were made up in Matrical 384-well, 25 μl V-bottomed plates (cat #MP101-2-PP), sealed with aluminium foil from Beckman Coulter (cat #538619) and stored at 12° C. overnight. Compound preparation and titrations were performed in AnalaR grade DMSO (Merck cat #1.02952.2500). The cell viability detection assay used was […]-GLO™ which is commercially available from Promega (cat #G7572), stored at −20° C. and used at 37° C.
Compounds of the invention were prepared as 10 mM solution in 100% DMSO and stored at −20° C. Compounds were thawed to room temperature and dispensed into a 384 well Matrical plate. Standard control compounds, e.g. 32.3 mM Etoposide, were added to the plate as controls.
The media was aspirated and the Mcl-1^(−/−) cells washed with 10 mls of warmed MT-PBS. MT-PBS was aspirated and 1 ml of trypsin was added. The T75 flasks were incubated at 37° C. until the cells became detached. 4 ml of 10% FCS FMA media was added to the trypsinized cells and the entire volume was transferred to a 50 ml centrifuge tube and centrifuged for 3 minutes at 250 g. The supernatant was aspirated and the pellet resuspended in 10 ml of 10% FCS FMA. 3 ml of this cell suspension was added to a clean 75 cm^2 flask containing 17 ml of 10% FCS FMA media, thus performing a 3:10 split. The remaining cell suspension was used to perform a 1:50 split into another 75 cm^2 flask for further culturing.
Cells were harvested as per method step 1 and the pellet resuspended in 3 mls 10% FCS FMA. Cell number was determined by counting in a Neubauer haemocytometer and the dilution calculated to achieve a density of 1×10^4 cells ml^−1 (500 cells per well in 50 μl media). Separate dilutions were prepared in 50 ml 10% FCS FMA and 50 ml 1% FCS FMA solutions respectively.
Four assay plates were set up per compound plate. Two 384 well plates containing Mcl-1^(−/−) cells in 10% FCS FMA and the other two plates containing Mcl-1^(−/−) cells in 1% FCS FMA.
Using the Multidrop, 25 μl cells were dispensed aseptically into all 384 wells of the assay plates. Plates were left to rest in a non-stacked layer at room temperature for approximately 30 minutes (minimizes edge-effects) and then were placed as a single layer in the 37° C. incubator. The plates were left to incubate overnight.
The compound plates were titrated by performing a 3-fold 11-point dilution series using 100% DMSO on the MiniTrak. Following titration of the compounds, 100 nl of compounds were added to the cell plates using the Zymark Sciclone Pintool. […]

platelets = assay: Cell viability assay for platelets (platelet rich plasma, CellTiter-Glo); type: cell-based; details: approximately 4 hours at 37 C
Method: Platelet rich plasma (PRP) was incubated with a compound of the invention for approximately 4 hours at 37° C. After incubation, platelets were equilibrated to room temperature for 20 minutes and then and equal volume of CELL TITER-GLO™ reagent (Promega Corporation) was added. Samples were mixed for two minutes and then allowed to equilibrate for an additional 10 minutes at room temperature. The luminescence generated from the samples was quantitated using a LJL Analyst plate reader. Data analysis was performed using GraphPad Prism 4.0.

[2] = tested on: NCI-H146 human small cell lung carcinoma cells; assay: Cellular viability of human tumor cell line NCI-H146 (MTS assay); type: cell-based; details: 10% human serum, 48 hours of compound treatment
Method: NCI-H146 (ATCC, Manassas, Va.) human small cell lung carcinoma cells were plated 50,000 cells per well in 96-well tissue culture plates in a total volume of 100 μL tissue culture medium supplemented with 10% human serum (Invitrogen, Carlsbad, Calif.) and treated with a 2-fold serial dilution of the compounds of interest from 10 μM to […].
Each concentration was tested in duplicate at least 3 separate times. The number of viable cells following 48 hours of compound treatment was determined using the […] 96® Aqueous non-radioactive cell proliferation MTS assay according to manufacturer's recommendations (Promega Corp., Madison, Wis.).

Chain of Bcl-xL (GST-Bcl-xL) (Q07817 whole entry, species assumed): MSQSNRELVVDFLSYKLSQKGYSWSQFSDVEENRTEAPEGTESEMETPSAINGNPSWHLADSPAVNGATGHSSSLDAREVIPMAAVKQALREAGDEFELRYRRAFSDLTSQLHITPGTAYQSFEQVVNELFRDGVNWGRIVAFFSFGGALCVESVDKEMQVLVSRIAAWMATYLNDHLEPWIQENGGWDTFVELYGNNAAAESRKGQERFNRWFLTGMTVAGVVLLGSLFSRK
T1 sequence (P10415 whole entry, species assumed): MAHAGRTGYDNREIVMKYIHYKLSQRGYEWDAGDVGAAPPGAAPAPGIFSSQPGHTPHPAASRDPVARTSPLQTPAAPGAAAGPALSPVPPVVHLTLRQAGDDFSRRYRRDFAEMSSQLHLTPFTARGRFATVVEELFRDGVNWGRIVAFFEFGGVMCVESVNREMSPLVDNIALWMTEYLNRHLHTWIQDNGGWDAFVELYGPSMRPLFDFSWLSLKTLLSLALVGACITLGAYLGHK

| Structure (SMILES) | Ki (Bcl-xL (GST-Bcl-xL)) | Ki (Bcl-2 (GST-Bcl-2)) | EC50 [1] | EC50 (platelets) | EC50 [2] |
| --- | --- | --- | --- | --- | --- |
| CN(C)CC#Cc1ccc(OCCCc2ccc(N3CCc4cccc(C(=O)Nc5nc6ccccc6s5)c4C3)nc2C(=O)O)c(F)c1 [Example 97, 6-(8-(benzo[d]thiazol-2-ylcarbamoyl)-3,4-dihydroisoquinolin-2(1H)-yl)-3-(3-(4-(3-(dimethylamino)prop-1-ynyl)-2-fluorophenoxy)propyl)picolinic acid] | 0.05 nM | 272 nM | 26 nM | 3 nM | 2400 nM |
| CN1CCN(c2ccc(OCCCc3sc(N4CCc5cccc(C(=O)Nc6nc7ccccc7s6)c5C4)nc3C(=O)O)cc2)CC1 [Example 82, 2-[8-(Benzothiazol-2-ylcarbamoyl)-3,4-dihydro-1H-isoquinolin-2-yl]-5-{3-[4-(4-methyl-piperazin-1-yl)-phenoxy]-propyl}-thiazole-4-carboxylic acid] | 0.05 nM | 120 nM | 30 nM | – | 2500 nM |
| O=C(Nc1nc2ccccc2s1)c1cccc2c1CN(c1nc(C(=O)O)c(CCCOc3ccc(N4CCNCC4)cc3)s1)CC2 [Example 64, 2-[8-(Benzothiazol-2-ylcarbamoyl)-3,4-dihydro-1H-isoquinolin-2-yl]-5-[3-(4-piperazin-1-yl-phenoxy)-propyl]-thiazole-4-carboxylic acid] | 0.05 nM | 90 nM | 310 nM | – | – |
| CN(C)CC#Cc1ccc(OCCCc2sc(N3CCc4cccc(C(=O)Nc5nc6ccccc6s5)c4C3)nc2C(=O)O)cc1 [Example 74, 2-[8-(Benzothiazol-2-ylcarbamoyl)-3,4-dihydro-1H-isoquinolin-2-yl]-5-{3-[4-(3-dimethylamino-prop-1-ynyl)-phenoxy]-propyl}-thiazole-4-carboxylic acid] | 0.05 nM | 60 nM | 7 nM | 21 nM | 710 nM |
| CN1CCN(c2ccc(OCCCc3sc(N4CCc5cccc(C(=O)Nc6nc7ccccc7s6)c5C4)nc3C(=O)O)c(F)c2)CC1 [Example 93, 2-[8-(Benzothiazol-2-ylcarbamoyl)-3,4-dihydro-1H-isoquinolin-2-yl]-5-{3-[2-fluoro-4-(4-methyl-piperazin-1-yl)-phenoxy]-propyl}-thiazole-4-carboxylic acid] | 0.05 nM | 155 nM | – | – | 3200 nM |
| O=C(Nc1nc2ccccc2s1)c1cccc2c1CN(c1nc(C(=O)O)c(CCCOc3ccc(OCCN4CCOCC4)cc3)s1)CC2 [Example 88, 2-[8-(Benzothiazol-2-ylcarbamoyl)-3,4-dihydro-1H-isoquinolin-2-yl]-5-{3-[4-(2-morpholin-4-yl-ethoxy)-phenoxy]-propyl}-thiazole-4-carboxylic acid] | 0.05 nM | 300 nM | 28 nM | 3 nM | – |
| CN(C)CCCc1ccc(OCCCc2ccc(N3CCc4cccc(C(=O)Nc5nc6ccccc6s5)c4C3)nc2C(=O)O)c(F)c1 [Example 100, 6-[8-(Benzothiazol-2-ylcarbamoyl)-3,4-dihydro-1H-isoquinolin-2-yl]-3-{3-[4-(3-dimethylamino-propyl)-2-fluoro-phenoxy]-propyl}-pyridine-2-carboxylic acid] | 0.5 nM | 219 nM | 399 nM | – | – |
| CN1CCN(c2ccc(OCCCc3ccc(N4CCc5cccc(C(=O)Nc6nc7ccccc7s6)c5C4)nc3C(=O)O)cc2)CC1 [Example 94, 6-[8-(Benzothiazol-2-ylcarbamoyl)-3,4-dihydro-1H-isoquinolin-2-yl]-3-{3-[4-(4-methyl-piperazin-1-yl)-phenoxy]-propyl}-pyridine-2-carboxylic acid] | 2 nM | 572 nM | 448 nM | – | – |
| O=C(Nc1nc2ccccc2s1)c1cccc2c1CN(c1nc(C(=O)O)c(CCCOc3ccc(-c4ncccn4)cc3)s1)CC2 [Example 81, 2-[8-(Benzothiazol-2-ylcarbamoyl)-3,4-dihydro-1H-isoquinolin-2-yl]-5-[3-(4-pyrimidin-2-yl-phenoxy)-propyl]-thiazole-4-carboxylic acid] | 0.05 nM | 110 nM | 10 nM | – | – |
| CN1CCN(CCCNc2ncnc3c2cnn3-c2ccc(OCCCc3sc(N4CCc5cccc(C(=O)Nc6nc7ccccc7s6)c5C4)nc3C(=O)O)cc2)CC1 [Example 84, 2-(8-(benzo[d]thiazol-2-ylcarbamoyl)-3,4-dihydroisoquinolin-2(1H)-yl)-5-(3-(4-(4-(3-(4-methylpiperazin-1-yl)propylamino)-1H-pyrazolo[3,4-d]pyrimidin-1-yl)phenoxy)propyl)thiazole-4-carboxylic acid] | 0.05 nM | 140 nM | 22 nM | – | 610 nM |
| N#Cc1ncccc1-c1ccc(OCCCc2sc(N3CCc4cccc(C(=O)Nc5nc6ccccc6s5)c4C3)nc2C(=O)O)cc1 [Example 58, 2-[8-(Benzothiazol-2-ylcarbamoyl)-3,4-dihydro-1H-isoquinolin-2-yl]-5-{3-[4-(2-cyano-pyridin-3-yl)-phenoxy]-propyl}-thiazole-4-carboxylic acid] | 0.5 nM | 310 nM | 1300 nM | – | – |
